Measurements as given in US20070184481A1, “Assay For Transcriptionally Active Methylated Promoters” (UNIVERSITY OF SOUTH FLORIDA, priority 2005, published 2007).

Test system: HLA-DRA mRNA in RFX-negative cell lines
Details: two RFX-negative suspension B-cell lines, 5 uM Azacytidine for 72 hours, RT-PCR 40 cycles, agarose gel detection
Description: Suspension B-cell lines were seeded at 10^5 cells per ml in 20 ml volume of media. […] Total RNA was prepared as described, and 5 ug of RNA were used in a standard reverse transcriptase, polymerase chain reaction (RT-PCR) for HLA-DRA mRNA and for γ-actin mRNA. PCR was performed for 40 cycles and the PCR products detected by 2.2% agarose gel electrophoresis.

Nc1ncn([C@@H]2O[C@H](CO)[C@@H](O)[C@H]2O)c(=O)n1 [AzaC, Azacytidine]
HLA-DRA mRNA production compared to untreated cells: increase in HLA-DRA mRNA production
